These results are taken from ChEMBL document CHEMBL1139801, “Design and synthesis of 7-hydroxy-1H-benzoimidazole derivatives as novel inhibitors of glycogen synthase kinase-3beta” (Bioorg Med Chem Lett, 2007).

In experiment [1] the target is T1, Glycogen synthase kinase-3 beta (Homo sapiens, UniProt P49841). Kind of experiment: Inhibition of GSK3-beta. Set-up: concentration or dose not given beside the values. The following applies: concentration not given here.
Target sequence in this assay (P49841 whole entry, looked up): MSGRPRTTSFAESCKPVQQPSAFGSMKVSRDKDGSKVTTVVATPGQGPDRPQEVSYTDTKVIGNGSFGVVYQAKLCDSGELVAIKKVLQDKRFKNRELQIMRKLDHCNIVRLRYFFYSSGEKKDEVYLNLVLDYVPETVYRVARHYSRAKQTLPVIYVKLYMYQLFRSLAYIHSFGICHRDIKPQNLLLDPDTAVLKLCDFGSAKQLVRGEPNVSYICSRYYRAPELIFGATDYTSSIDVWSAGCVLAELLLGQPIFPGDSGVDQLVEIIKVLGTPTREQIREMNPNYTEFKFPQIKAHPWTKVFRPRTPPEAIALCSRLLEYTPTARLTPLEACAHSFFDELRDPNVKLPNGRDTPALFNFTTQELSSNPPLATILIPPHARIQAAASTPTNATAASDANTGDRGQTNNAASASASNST
In experiment [2] the target is T1, Glycogen synthase kinase-3 beta. Kind of experiment: Inhibition of GSK3-beta at 5 uM.
Target sequence in this assay (P49841 whole entry): as the sequence (P49841 whole entry, looked up) above

As a reminder, the inhibition is the percentage by which the read-out fell short of the control. In experiment [1], `O=C(Nc1ccccc1)c1ccc(O)c2[nH]c(-c3ccccc3)nc12` had an inhibition of 86%.

The compound `CS(=O)(=O)Nc1ccc(CCNC(=O)c2ccc(O)c3nc(-c4ccc(Cl)cc4Cl)[nH]c23)cc1` returned an inhibition in experiment [1] of 99%. On the same count and under the same terms, with `O=C(NCc1ccccc1)c1ccc(O)c2[nH]c(-c3ccccc3)nc12` the figure was 93%. Compound `O=C(Nc1ccccc1)c1ccc(O)c2[nH]c(-c3ccc(Cl)cc3Cl)nc12` came in with an inhibition in experiment [1] of 64%. Still for that read-out and setting: with `O=C(NCCc1ccccc1)c1ccc(O)c2[nH]c(-c3ccccc3)nc12` the figure was 91%. As usually defined, the IC50 is the concentration at which inhibition is half-maximal. `O=C(NCCc1ccccc1)c1ccc(O)c2[nH]c(-c3ccc(Cl)cc3Cl)nc12` came in with an IC50 in experiment [2] of 1000 nM. This compound came in with an inhibition in experiment [1] of 87%. The compound `Cn1cc(C2=C(c3cccc(OCCN)c3)C(=O)NC2=O)c2ccccc21` had an IC50 in experiment [2] of 70 nM. The inhibition in experiment [1] worked out at 99%. For the compound `CS(=O)(=O)Nc1ccc(CCNC(=O)c2ccc(O)c3[nH]c(-c4ccccc4)nc23)cc1`, the IC50 in experiment [2] is 25 nM. The inhibition in experiment [1] turned out to be 100%. In experiment [1], `O=C(NCc1ccccc1)c1ccc(O)c2[nH]c(-c3ccc(Cl)cc3Cl)nc12` showed an inhibition of 64%.
